From patent publication US20250290117A1, “MOLECULAR PHENOTYPIC ANTIMICROBIAL SUSCEPTIBILITY TESTING” (priority 2024, published 2025)

Experiments:
P. aeruginosa [1] = experiment: Molecular phenotypic antimicrobial susceptibility test with direct PCR (no extraction DNA purification step); assay type: cell-based, Pseudomonas aeruginosa; conditions: for Ct at Sensitive Breakpoint: P. aeruginosa isolate MRSN1938, Ct at control (average) 12.031; for Molecular Antimicrobial Susceptibility Result: P. aeruginosa isolate MRSN1938, at sensitive breakpoint
Method: (§1) Detection of Molecular Phenotypic Antimicrobial Susceptibility. Disclosed herein are the methods for the detection of phenotypic antimicrobial susceptibility via molecular methods. The present invention describes how a specimen 100 with a known microbial load is incubated and then exposed to a panel of antimicrobial agents to determine sensitivity (prevention of growth) or resistance (allowance of growth) to the specific antimicrobial agents tested utilizing molecular methods.
(§2) Sample Collection. Specimens 100 are collected from patients using sterile collection processes that are employed in routine clinical care. Specimens are transported to the testing facility in boric acid preservative. Specimens 100 are subsequently divided into a first sample 104 and a second sample 108.
(§3) Preparation of the Specimens for Testing. The specimens 100 are put through a pathogen identification process using PCR technology (e.g., using the first sample 104). The process for pathogen isolation includes steps of harvesting the pathogen (e.g., via centrifugation), isolating pathogen DNA via a DNA isolation and/or purification kit, and performing PCR on the pathogen DNA via PCR components (e.g., primers, enzymes, buffers) as would be known to the skilled artisan. Simultaneously, an additional aliquot of the same specimen (e.g., the second sample 108) is placed with liquid culture media and incubated for 4-6 hours. This aliquot is used for antimicrobial susceptibility testing if indicated based on the pathogen detection results. After pathogen identification is completed and if more than 10,000 cells/mL of bacteria (e.g., eligible bacteria) are detected in the source specimen, the second sample 108 then enters the antimicrobial susceptibility phase of testing. Specimens 100 with lower pathogen loads could also be utilized in the antibiotic susceptibility phase of testing with or without a longer incubation period.
(§4) Preparation of Antimicrobial Susceptibility Testing Plates. Antimicrobial solutions are prepared at known concentrations. The specific antimicrobials and their concentrations are selected based on the pathogen of interest and the described antimicrobial resistance breakpoints for that specimen pathogen and antimicrobial combination. These antimicrobials have been selected based on those commonly utilized by healthcare providers in routine clinical care for the specific type of suspected infection. The number and types of antimicrobials utilized can be customized based on the infection source, pathogen detected, patient-specific factors such as allergies or other health conditions (e.g., chronic kidney disease or concurrent medication use), or healthcare provider preferences such as antimicrobial availability or cost.
(§5) The antimicrobial solutions are prepared in liquid culture media (such as Muller Hinton Broth) to achieve the desired antimicrobial concentration and are then stored at −80° C. until use. For a given specimen, each antimicrobial is tested at a single or multiple antimicrobial concentration(s) which is its established breakpoints for sensitivity. The antimicrobial solutions are prepared and plated out for each specific pathogen. This allows ease of use on the day of testing after defrosting the plate 112. Table 1, which illustrates the results of molecular phenotypic antimicrobial susceptibility testing when more than one organism is present in the source specimen, provides an example of an antimicrobial plate 112 prepared for this purpose. Of note, control wells containing only culture media are present on all plates 112. This allows for evaluation of pathogen load when no antimicrobial is present.
(§6) Specimen Exposure to Antimicrobial Agents. The 1 mL aliquot of the specimen 100 previously mixed with culture media and incubated is obtained. Using optical density measurements as a guide, the specimen 100 is diluted to 0.5 McFarland. […]

P. aeruginosa [2] = experiment: Traditional culture-based antimicrobial susceptibility test; assay type: cell-based, Pseudomonas aeruginosa; conditions: P. aeruginosa isolate MRSN1938
Method: (§7) Table 5 illustrates the results of an example antimicrobial agent susceptibility test of the current application versus a traditional culture-based antimicrobial agent susceptibility test for multiple specimens with different pathogens, in accordance with one or more embodiments of the disclosure. These specimens were tested with direct PCR (e.g., no extraction DNA purification step prior to PCR). As in Tables 1, 2, and 3, the results of the test of the current application are similar to the results from the traditional test.
(§8) Result Reporting to Healthcare Providers. The results from the antimicrobial exposure are reported to the ordering healthcare provider. This information can be utilized by the healthcare provider when selecting an antimicrobial regimen for their individual patient based on these individual specimen results and patient specific factors. […] The current standard of care for antimicrobial susceptibility testing involves the growth, isolation, and exposure of pathogens to antimicrobials. This traditional culture and sensitivity process can take multiple days to obtain results, limiting the ability of healthcare providers to receive timely results to make actionable changes in patient care or management. Healthcare providers desire a method to obtain antimicrobial susceptibility results with quicker turn-around-time. This application discloses a molecular-based phenotypic antimicrobial susceptibility method which involves pathogen exposure to a panel of antimicrobial agents at their specified minimum inhibitory concentration breakpoints for sensitivity. This method allows for more timely antimicrobial susceptibility results.

S. aureus = experiment: as above; assay type: cell-based, Staphylococcus aureus; conditions: S. aureus isolate NR-46412 HIP13170
Method: as §7, §8

[3] = system: Staphylococcus epidermidis; experiment: Molecular phenotypic antimicrobial susceptibility test (semi-quantitative PCR after antimicrobial exposure; extraction/DNA purification prior to PCR); assay type: cell-based
Method: as §1, §2, §3, §4, §5, §6

[4] = S. epidermidis isolate 1, Ct at control (average) 10.611
[5] = S. epidermidis isolate 1, at sensitive breakpoint
[6] = S. epidermidis isolate 2, Ct at control (average) 11.861
[7] = S. epidermidis isolate 2, at sensitive breakpoint
[8] = S. epidermidis isolate 3, Ct at control (average) 12.941
[9] = S. epidermidis isolate 3, at sensitive breakpoint
[10] = S. epidermidis isolate 4, Ct at control (average) 11.861
[11] = S. epidermidis isolate 4, at sensitive breakpoint
[12] = S. epidermidis isolate 5, Ct at control (average) 12.941
[13] = S. epidermidis isolate 5, at sensitive breakpoint

Molecule	Ct at Sensitive Breakpoint (P. aeruginosa [1])	Molecular Antimicrobial Susceptibility Result (P. aeruginosa [1])	Traditional Culture Result (P. aeruginosa [2])	Traditional Culture Result (S. aureus)	Ct at Sensitive Breakpoint [3, 4]	Molecular Antimicrobial Susceptibility Result [3, 5]	Ct at Sensitive Breakpoint [3, 6]	Molecular Antimicrobial Susceptibility Result [3, 7]	Ct at Sensitive Breakpoint [3, 8]	Molecular Antimicrobial Susceptibility Result [3, 9]	Ct at Sensitive Breakpoint [3, 10]	Molecular Antimicrobial Susceptibility Result [3, 11]	Ct at Sensitive Breakpoint [3, 12]	Molecular Antimicrobial Susceptibility Result [3, 13]
Piperacillin/Tazobactam	13.375	Sensitive (Antimicrobial wells with pathogen load detected below the control wells (typically >2 cycle thresholds later) may be reported as Sensitive)	Sensitive											
C[C@H]1COc2c(N3CCN(C)CC3)c(F)cc3c(=O)c(C(=O)O)cn1c23 [Levofloxacin]	12.853	Resistant												
CO[C@@]1(NC(=O)Cc2cccs2)C(=O)N2C(C(=O)O)=C(COC(N)=O)CS[C@@H]21 [Cefoxitin]				Resistant										
C[C@@H](O)[C@H]1C(=O)N2C(C(=O)O)=C(S[C@@H]3CN[C@H](C(=O)N(C)C)C3)[C@H](C)[C@H]12 [Meropenem]	12.404	Resistant	Resistant*											
Gentamicin				Resistant										
Trimethoprim/Sulfamethoxazole [TMP/SMX]				Sensitive	10.79	Resistant	10.503	Resistant	11.341	Resistant	10.970	Resistant	12.620	Resistant
O=C(O)c1cn(C2CC2)c2cc(N3CCNCC3)c(F)cc2c1=O [Ciprofloxacin]	12.239	Resistant	Resistant	Resistant										
CO/N=C(\C(=O)N[C@@H]1C(=O)N2C(C(=O)[O-])=C(C[N+]3(C)CCCC3)CS[C@H]12)c1csc(N)n1 [Cefepime]	13.373	Sensitive (Antimicrobial wells with pathogen load detected below the control wells (typically >2 cycle thresholds later) may be reported as Sensitive)	Sensitive		11.785	Resistant	8.669	Resistant	8.646	Resistant	8.418	Resistant	8.474	Resistant
CN[C@H](CC(C)C)C(=O)N[C@H]1C(=O)N[C@@H](CC(N)=O)C(=O)N[C@H]2C(=O)N[C@H]3C(=O)N[C@H](C(=O)N[C@H](C(=O)O)c4cc(O)cc(O)c4-c4cc3ccc4O)[C@H](O)c3ccc(c(Cl)c3)Oc3cc2cc(c3O[C@@H]2O[C@H](CO)[C@@H](O)[C@H](O)[C@H]2O[C@H]2C[C@](C)(N)[C@H](O)[C@H](C)O2)Oc2ccc(cc2Cl)[C@H]1O [Vancomycin]				Resistant	12.950	Sensitive (Antimicrobial wells with pathogen load detected below the control wells (typically >2 cycle thresholds later) may be reported as Sensitive)	18.235	Sensitive (Antimicrobial wells with pathogen load detected below the control wells (typically >2 cycle thresholds later) may be reported as Sensitive)	18.173	Sensitive (Antimicrobial wells with pathogen load detected below the control wells (typically >2 cycle thresholds later) may be reported as Sensitive)	20.001	Sensitive (Antimicrobial wells with pathogen load detected below the control wells (typically >2 cycle thresholds later) may be reported as Sensitive)	8.719	Resistant
